Among the data in patent publication US20120165304A1, “6,7,8,9-Tetrahydro-5H-1,4,7,10a-tetraaza-cyclohept[f]indene derivatives, pharmaceutical compositions containing these compounds, their use and processes for preparing them” (BOEHRINGER INGELHEIM INTERNATIONAL GMBH, priority 2008, published 2012) are EC50 values, retold here.

The term EC50 denotes the concentration giving half of the maximal effect. A higher EC50 goes with weaker potency.

For the assay, the target named is human 5-HT2C receptor (Homo sapiens, UniProt P28335, I156V/I160V/N158S). Description: cell-based.
Sequence of human 5-HT2C receptor (P28335 33-458 I156V/N158S/I160V limits assumed): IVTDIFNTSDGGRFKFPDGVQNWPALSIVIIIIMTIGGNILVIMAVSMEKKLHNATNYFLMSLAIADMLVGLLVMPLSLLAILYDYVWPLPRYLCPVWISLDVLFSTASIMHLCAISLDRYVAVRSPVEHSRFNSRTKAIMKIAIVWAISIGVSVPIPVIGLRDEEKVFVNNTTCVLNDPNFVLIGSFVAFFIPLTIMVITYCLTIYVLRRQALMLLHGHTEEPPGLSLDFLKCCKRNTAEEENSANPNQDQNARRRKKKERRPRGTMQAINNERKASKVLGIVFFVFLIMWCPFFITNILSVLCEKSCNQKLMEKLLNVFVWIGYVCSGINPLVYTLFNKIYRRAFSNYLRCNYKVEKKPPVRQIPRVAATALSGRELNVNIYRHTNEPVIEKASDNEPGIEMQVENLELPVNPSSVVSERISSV
Compound `O=C(C1CCCC1)N1CCN(C(=O)C2CN(c3c4c(nc5ccnn35)CCNCC4)C2)CC1` [Example 37.87] came in with an EC50 of 9 nM.
With `CN(Cc1ccc(Cl)c(Cl)c1)C(=O)C1CN(c2c3c(nc4ccnn24)CCNCC3)C1` [Example 31.81] the figure was 33 nM; with `CC(C)C(NC(=O)C1CN(c2c3c(nc4ccnn24)CCNCC3)C1)C(F)(F)F` (stereo not drawn) [Example 37.104], 106 nM.
In the case of `COc1ccccc1OC1CN(c2c3c(nc4ccnn24)CCNCC3)C1` [Example 35.54], the midpoint of the response, the EC50, lay at 85 nM.
With `CN1CCN(C(=O)C2CN(c3c4c(nc5ccnn35)CCNCC4)C2)CC1=O` [Example 37.100] the figure was 14 nM; with `COc1ccc(CC2CN(c3c4c(nc5ccnn35)CCNCC4)C2)cc1` [Example 18.1], 119 nM; with `CC1CC(c2ccccc2)CN1C(=O)C1CN(c2c3c(nc4ccnn24)CCNCC3)C1` (stereo not drawn) [Example 31.128], 54 nM.
Compound `Cn1c(C2CN(c3c4c(nc5ccnn35)CCNCC4)C2)nc2ccc(Cl)cc21` [Example 34.6] returned an EC50 of 65 nM.
With `c1ccc(Cn2c(C3CN(c4c5c(nc6ccnn46)CCNCC5)C3)nc3ccccc32)cc1` [Example 34.28] the figure was 188 nM; with `Fc1cc(OCC2CN(c3c4c(nc5ccnn35)CCNCC4)C2)ccc1Cl` [Example 15.13], 28 nM; with `O=C(C1CN(c2c3c(nc4ccnn24)CCNCC3)C1)N1CCc2c(cccc2C(F)(F)F)C1` [Example 31.102], 36 nM.
Turning to `CN1CCc2nc3ccnn3c(N3CC(C(=O)N4CCC(F)(F)C4)C3)c2CC1` [Example 36.30], a half-maximal effect (EC50) was put at 117 nM. Compared with the last compound, the EC50 is about 3.2-fold higher.
`COc1cccc(OC2CN(c3c4c(nc5ccnn35)CCNCC4)C2)c1` [Example 35.47] showed an EC50 of 66 nM.
With `CN(Cc1ccc(C#N)cc1)C(=O)C1CN(c2c3c(nc4c(Br)cnn24)CCNCC3)C1` [Example 31.139] the figure was 16 nM.
The same measure for `c1cc2c(c(OC3CN(c4c5c(nc6ccnn46)CCNCC5)C3)c1)CCCC2` [Example 35.25]: 666 nM; for `O=C(C1CN(c2c3c(nc4ccnn24)CCNCC3)C1)N1CCC(N2CCOCC2)CC1` [Example 37.19]: 5 nM; for `Cn1c(C2CN(c3c4c(nc5ccnn35)CCNCC4)C2)nc2ccccc21` [Example 34.1]: 53 nM.
In turn, `O=C(C1CN(c2c3c(nc4ccnn24)CCNCC3)C1)N1CCC(c2ccc(F)cc2F)CC1` [Example 31.114] registered an EC50 of 38 nM.
`O=C(C1CN(c2c3c(nc4ccnn24)CCNCC3)C1)N1CCC2(CC1)OCc1ccccc12` [Example 31.153] gave an EC50 of 86 nM.
Take `COCCNC(=O)C1CN(c2c3c(nc4ccnn24)CCNCC3)C1` [Example 37.73]: the EC50 was 88 nM.
Consider `O=C(NC1CCCOC1)C1CN(c2c3c(nc4ccnn24)CCNCC3)C1` (stereo not drawn) [Example 37.49], for which the response was half-maximal at 44 nM (EC50). This EC50 is about 2-fold lower than that of the compound before.
The same measure for `CCc1cnn2c(N3CCCCC3)c3c(nc12)CCNCC3` [Example 25, 3-Ethyl-10-piperidin-1-yl-6,7,8,9-tetrahydro-5H-1,4,7,10a-tetraaza-cyclohepta[f]indene]: 106 nM.
The same measure for `COC[C@H]1CCCN1c1c2c(nc3ccnn13)CCNCC2` [Example 1.12]: 507 nM; for `O=C(C1CN(c2c3c(nc4ccnn24)CCNCC3)C1)N1CCC(c2ccccc2F)C1` (stereo not drawn) [Example 31.116]: 60 nM.
With `CC(c1ccccc1)n1c(C2CN(c3c4c(nc5ccnn35)CCNCC4)C2)nc2cc(Cl)ccc21` (stereo not drawn) [Example 34.37] the figure was 2380 nM; with `CN(CC1CC1)C(=O)C1CN(c2c3c(nc4ccnn24)CCNCC3)C1` [Example 31.97], 156 nM.
For the compound `CC(C)=CCN1CCC(NC(=O)C2CN(c3c4c(nc5ccnn35)CCNCC4)C2)CC1` [Example 43, 1-(6,7,8,9-Tetrahydro-5H-1,4,7,10a-tetraaza-cyclohept[f]inden-10-yl)-azetidine-3-carboxylic acid [1-(3-methyl-but-2-enyl)-piperidin-4-yl]-amide], the EC50 was 8 nM.
Compound `FC(F)(F)c1ccccc1OC1CN(c2c3c(nc4ccnn24)CCNCC3)C1` [Example 35.31] showed an EC50 of 129 nM.
The compound `CCC#CCNC(=O)C1CN(c2c3c(nc4ccnn24)CCNCC3)C1` [Example 37.52] gave an EC50 of 61 nM.
With `O=C(C1CN(c2c3c(nc4ccnn24)CCNCC3)C1)N1CCc2ccccc2CC1` [Example 31.33], it took 196 nM to reach a half-maximal effect (EC50).
The compound `COc1ccc(OCC2CN(c3c4c(nc5ccnn35)CCNCC4)C2)c(F)c1` [Example 15.9] yielded an EC50 of 7 nM.
The same measure for `O=C(C1CN(c2c3c(nc4ccnn24)CCNCC3)C1)N1CC[C@@H](c2ccccc2)C1` [Example 31.223]: 39 nM.
For the compound `O=C(C1CN(c2c3c(nc4ccnn24)CCNCC3)C1)N1CCC(Oc2ccccc2Cl)CC1` [Example 31.145], the EC50 was found to be 94 nM.
With `O=C(NCC1CCC1)C1CN(c2c3c(nc4ccnn24)CCNCC3)C1` [Example 37.50] the figure was 51 nM; with `Cc1cnn2c(N3CC(C(=O)N4CCCC(F)(F)C4)C3)c3c(nc12)CCNCC3` [Example 31.238], 13 nM.
The compound `Clc1cccnc1OC1CN(c2c3c(nc4ccnn24)CCNCC3)C1` [Example 20.11] gave an EC50 of 116 nM. This EC50 lies about 8.9-fold higher than the previous one.
The compound `CS(=O)(=O)N1CCN(C(=O)C2CN(c3c4c(nc5ccnn35)CCNCC4)C2)CC1` [Example 37.45] came in with an EC50 of 2 nM.
As to `Cc1cnn2c(N3CC(C(=O)N4CCC(Oc5ccccc5)CC4)C3)c3c(nc12)CCNCC3` [Example 31.244], the EC50 came out at 62 nM.
With `CC1CN(C(=O)C2CN(c3c4c(nc5ccnn35)CCN(C)CC4)C2)CC(C)N1C` (stereo not drawn) [Example 36.7] the figure was 106 nM; with `Brc1ccccc1OC1CN(c2c3c(nc4ccnn24)CCNCC3)C1` [Example 35.7], 67 nM.
As to `CC(C)(C)CCNC(=O)C1CN(c2c3c(nc4ccnn24)CCNCC3)C1` [Example 37.83], a half-maximal effect (EC50) was put at 51 nM.
With `CC1(C(=O)N2CCC3(CC2)OCc2ccccc23)CN(c2c3c(nc4ccnn24)CCNCC3)C1` [Example 32.5] the figure was 6550 nM; with `CN(CCc1cccc(Cl)c1)C(=O)C1CN(c2c3c(nc4ccnn24)CCNCC3)C1` [Example 31.59], 147 nM.
Consider `CN1CCc2nc3ccnn3c(N3CC(C(=O)NCC4CCN(C)CC4)C3)c2CC1` [Example 36.3], for which the midpoint of the response, the EC50, lay at 108 nM.
The compound `O=C(C1CN(c2c3c(nc4ccnn24)CCNCC3)C1)N1CCCC2(CCCc3ccccc32)C1` (stereo not drawn) [Example 31.172] had an EC50 of 765 nM.
With `C[C@H](NC(=O)C1CN(c2c3c(nc4ccnn24)CCNCC3)C1)C1CCCCC1` [Example 31.189] the figure was 315 nM; with `CCN1CCN(C(=O)C2CN(c3c4c(nc5ccnn35)CCNCC4)C2)CC1=O` [Example 37.65], 5 nM; with `O=C(C1CN(c2c3c(nc4ccnn24)CCNCC3)C1)N1CCC(c2ccc(F)cc2)CC1` [Example 31.110], 30 nM.
In turn, `C#CCNC(=O)C1CN(c2c3c(nc4ccnn24)CCNCC3)C1` [Example 37.85] displayed an EC50 of 94 nM.
The same measure for `c1ccc(C2CCN2c2c3c(nc4ccnn24)CCNCC3)cc1` (stereo not drawn) [Example 21, 10-(2-Phenyl-azetidin-1-yl)-6,7,8,9-tetrahydro-5H-1,4,7,10a-tetraaza-cyclohepta[f]indene]: 5200 nM; for `COc1ccc(C(O)C2CN(c3c4c(nc5ccnn35)CCNCC4)C2)cc1` (stereo not drawn) [Example 19, (4-Methoxy-phenyl)-[1-(6,7,8,9-tetrahydro-5H-1,4,7,10a-tetraaza-cyclohepta[f]inden-10-yl)-azetidin-3-yl]-methanol]: 139 nM; for `CN(Cc1ccn(C)n1)C(=O)C1CN(c2c3c(nc4ccnn24)CCNCC3)C1` [Example 31.54]: 107 nM.
With `c1cnc2ccc(OC3CN(c4c5c(nc6ccnn46)CCNCC5)C3)cc2c1` [Example 35.43], the EC50 was determined as 207 nM.
The compound `c1ccc(OC2CN(c3c4c(nc5ccnn35)CCNCC4)C2)cc1` [Example 1.3] displayed an EC50 of 18 nM.
Compound `c1ccc(CCc2cnn3c(N4CCC4)c4c(nc23)CCNCC4)nc1` [Example 6, 10-Azetidin-1-yl-3-(2-pyridin-2-yl-ethyl)-6,7,8,9-tetrahydro-5H-1,4,7,10a-tetraaza-cyclohepta[f]indene] had an EC50 of 156 nM.
`FC(F)(F)c1ccnc(OC2CN(c3c4c(nc5ccnn35)CCNCC4)C2)c1` [Example 20.9] registered an EC50 of 84 nM.
The same measure for `CN(Cc1ccc(-c2ccccc2)cc1)C(=O)C1CN(c2c3c(nc4ccnn24)CCNCC3)C1` [Example 31.82]: 154 nM; for `Cc1ccc2c(c1)CCCN2C(=O)C1CN(c2c3c(nc4ccnn24)CCNCC3)C1` [Example 31.190]: 4 nM.
In turn, `O=C(C1CN(c2c3c(nc4ccnn24)CCNCC3)C1)N1CCN(c2ccccc2F)CC1` [Example 37.40] showed an EC50 of 12 nM.
In the case of `O=C(C1CN(c2c3c(nc4ccnn24)CCNCC3)C1)N1CC=CC1` [Example 31.183], it took 308 nM to reach a half-maximal effect (EC50).
Compound `O=C(C1CN(c2c3c(nc4ccnn24)CCNCC3)C1)N1C[C@@H]2C[C@H]1CN2` [Example 37.28] showed an EC50 of 6 nM.
`c1cc2nc3c(c(N4CC(OCC5CC5)C4)n2n1)CCNCC3` [Example 20.3]: the EC50 stood at 469 nM.
The same measure for `CN(Cc1ccccc1Br)C(=O)C1CN(c2c3c(nc4ccnn24)CCNCC3)C1` [Example 31.78]: 83 nM; for `CCN1CCN(C(=O)C2CN(c3c4c(nc5ccnn35)CCNCC4)C2)CC1` [Example 37.1]: 3 nM; for `CN1C2CCC1CC(NC(=O)C1CN(c3c4c(nc5ccnn35)CCNCC4)C1)C2` (stereo not drawn) [Example 37.93]: 12 nM.
As to `CN(CCc1ccccc1)C(=O)C1CN(c2c3c(nc4ccnn24)CCNCC3)C1` [Example 31.61], the response was half-maximal at 176 nM (EC50). Against the preceding compound, the EC50 is about 15-fold higher.
The same measure for `CC(=O)N1CCCN(C(=O)C2CN(c3c4c(nc5ccnn35)CCNCC4)C2)CC1` [Example 37.102]: 67 nM.
With `CC(C)CC(=O)N1CCN(C(=O)C2CN(c3c4c(nc5ccnn35)CCNCC4)C2)CC1` [Example 37.57] the figure was 27 nM; with `CN1CC(NC(=O)C2CN(c3c4c(nc5ccnn35)CCNCC4)C2)C1` [Example 37.64], 4 nM.
